Assay [1] concerns human foetal lung fibroblasts. Particulars: cited from earlier work.
The next assay relates to UUO mice. The note with it: compared with LPA1 (−/−) mice; cited from earlier work.
For assay [2], the system named is mouse epithelial renal cell line, MCT. The note with it: co-treatment with LPA, MCT cells; cited from earlier work.
Assay [3] has as its system pancreatic cancer cell lines. The note with it: cited from earlier work.
For assay [4], the system named is highly peritoneal metastatic pancreatic cancer cell line. The note with it: cited from earlier work.
The next assay has as its system bone metastasis. The note with it: in vivo; cited from earlier work.
The test system of a further assay is nerve-injured mice. The note with it: pretreatment; cited from earlier work.
The target in another assay is T1, LPA3 receptor (Mus musculus, UniProt Q9EQ31).
T1 construct: host or cells: mouse kidney in vivo
T1 sequence (Q9EQ31 1-354): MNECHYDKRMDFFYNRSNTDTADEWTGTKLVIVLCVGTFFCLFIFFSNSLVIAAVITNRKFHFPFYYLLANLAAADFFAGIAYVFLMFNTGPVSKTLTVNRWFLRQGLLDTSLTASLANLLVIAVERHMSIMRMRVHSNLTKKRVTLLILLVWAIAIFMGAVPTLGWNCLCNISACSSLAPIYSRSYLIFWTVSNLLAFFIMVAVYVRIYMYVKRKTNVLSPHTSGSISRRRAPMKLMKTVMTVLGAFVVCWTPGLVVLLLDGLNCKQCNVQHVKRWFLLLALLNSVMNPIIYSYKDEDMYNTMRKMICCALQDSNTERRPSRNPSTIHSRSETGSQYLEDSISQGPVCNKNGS
The note with it: in the presence of the agonist; cited from earlier work.

The next assay addresses T2, Human LPA1 (Homo sapiens, UniProt Q92633).
T2 construct: the full-length cDNA for human LPA1 was obtained by PCR of the reverse transcription reaction; expressed in transfected cells
The assay is described as follows: LPA1 calcium flux assay. It is filed as cell-based. Particulars: CHO cells expressing human LPA1, stimulated with 10 nM LPA; read-out: LPA1 Ca^2+ flux. As for the experimental part:
A 1.1 kb cDNA encoding the human LPA1 receptor was cloned from human lung. Human lung RNA (Clontech Laboratories, Inc. USA) was reverse transcribed using the RETROSCRIPT® kit (Ambion, Inc.) and the full-length cDNA for human LPA1 was obtained by PCR of the reverse transcription reaction. The nucleotide sequence of the cloned human LPA1 was determined by sequencing and confirmed to be identical to the published human LPA1 sequence (An et al., Biochem. Biophys. Res. Commun. 231:619 (1997). The cDNA was cloned into the pcDNA5/FRT expression plasmid and transfected in CHO cells using Lipofectamine 2000 (Invitrogen Corp., USA). Clones stably expressing human LPA1 were selected using hygromycin and identified as cells that show Ca-influx in response to LPA.
Human LPA1 or LPA3 expressing CHO cells are seeded at 20,000-45,000 cells per well in a 96-well poly-D-lysine coated plate one or two days before the assay. Prior to the assay, the cells are washed once with PBS and then cultured in serum-free media overnight. On the day of the assay, a calcium indicator dye (Calcium 4, Molecular Devices) in assay buffer (HBSS with Ca^2+ and Mg^2+ and containing 20 mM Hepes and 0.3% fatty-acid free human serum albumin) is added to each well and incubation continued for 1 hour at 37° C. 10 μl of test compounds in 2.5% DMSO are added to the cells and incubation continued at room temperature for 30 minutes. Cells are the stimulated by the addition of 10 nM LPA and intracellular Ca^2+ measured using the FLEXSTATION® 3 (Molecular Devices). IC50s are determined using Graphpad prism analysis of drug titration curves.

For assay [5], the system named is mouse bleomycin lung fibrosis model. Briefly: Bleomycin-induced lung fibrosis model in mice. It is filed as in vivo. From the text: Female C57Bl/6 mice (Harlan, 25-30 g) are housed 4 per cage, given free access to food and water and allowed to acclimate for at least 7 days prior to test initiation. After the habituation phase, mice are lightly anesthetized with isoflurane (5% in 100% O2) and administered with bleomycin sulfate (0.01-5 U/kg, Henry Schein) via intratracheal instillation (Cuzzocrea, S et al., Am. J. Physiol. Lung Cell Mol. Physiol., 292(5):L1095-104 (May 2007) (Epub Jan. 12, 2007). Mice are returned to their cages and monitored daily for the duration of the experiment. Test compound or vehicle is delivered po, ip or sc daily. The route and frequency of dosing is based on previously determined pharmacokinetic properties. All animals are sacrificed using inhaled isoflurane 3, 7, 14, 21 or 28 days after bleomycin instillation. Following sacrifice, mice are intubated with a 20 gauge angiocatheter attached to a 1 ml syringe. Lungs are lavaged with saline to obtain bronchoalveolar lavage fluid (BALF) and then removed and fixed in 10% neutral buffered formalin for subsequent histopathological analysis. BALF is centrifuged for 10 min at 800×g to pellet the cells and the cell supernatant removed and frozen at −80° C. for subsequent protein analysis using the DC protein assay kit (Biorad, Hercules, Calif.) and soluble collagen analysis using Sircol (Biocolor Ltd, UK). BALF is analyzed for concentrations of inflammatory, pro-fibrotic and tissue injury biomarkers including transforming growth factor β1, hyaluronic acid, tissue inhibitor of metalloproteinase-1, matrix matelloproteinase-7, connective tissue growth factor and lactate dehydrogenase activity, using commercially available ELISA. The cell pellet is re-suspended in PBS. Total cell counts are then obtained using a HEMAVET® hematology system (Drew Scientific, Wayne, Pa.) and differential cells counts are determined using Shandon cytospin (Thermo Scientific, Waltham, Mass.). Lung tissue is stained using hematoxylin and eosin (H&E) and trichrome and lung fibrosis is determined by semiquantitative histopathological scoring (Ashcroft T. et al., J. Clin. Path., 41(4):467-470 (1988)) using light microscopy (10× magnification) and quantitative, computer-assisted densitometry of collagen in lung tissue sections using light microscopy. The data are plotted using Graphpad prism and statistical differences between groups determined

The mark [6] stands for this setting: multiple timepoints following intratracheal bleomycin instillation.

Structures are written as SMILES.

T2 sequence (Q92633 whole entry): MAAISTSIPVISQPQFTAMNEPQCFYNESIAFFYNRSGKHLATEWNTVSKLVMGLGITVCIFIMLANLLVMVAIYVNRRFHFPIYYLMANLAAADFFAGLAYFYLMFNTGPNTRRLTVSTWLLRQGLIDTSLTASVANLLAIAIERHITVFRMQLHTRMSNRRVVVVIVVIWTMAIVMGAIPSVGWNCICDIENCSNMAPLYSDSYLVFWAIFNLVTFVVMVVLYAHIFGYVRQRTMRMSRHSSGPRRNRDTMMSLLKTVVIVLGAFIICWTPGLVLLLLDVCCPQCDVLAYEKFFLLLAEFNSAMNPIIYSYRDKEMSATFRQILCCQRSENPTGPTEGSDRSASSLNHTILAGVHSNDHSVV

Turning to `Cc1noc(-c2ccc(CSCCC(=O)O)cc2)c1NC(=O)OC(C)c1ccccc1Cl` (centres unmarked) [Ki16425], in assay [1], the “chemotaxis of human foetal lung fibroblasts induced by BAL from IPF patients” value is “blocked” and the “increased fibroblast chemotactic activity in bronchoalveolar lavage samples of human subjects with IPF” value was “inhibited”. The “development of renal fibrosis” value with UUO mice is recorded as “closely resembled the LPA1 (−/−) mice”. Moreover, the “LPA-induced expression of the profibrotic cytokine CTGF” value in assay [2] is “almost completely suppressed”. In [3], the “in vitro migration in response to LPA and peritoneal fluid (ascites) from pancreatic cancer patients” value is on record as “effectively blocked”. Also, in assay [4], the “LPA-induced and ascites-induced invasion activity” value is reported as “blocked”. Further, in the assay with bone metastasis, the metastasis to bone entry was “inhibit metastasis to bone”.
As for `C[C@@H](N)[C@H]1CC[C@H](C(=O)Nc2ccncc2)CC1` [Compound Y-27632], the allodynia and hyperalgesia entry in the assay with nerve-injured mice is “completely abolished”.
Consider `CCCCCCCC/C=C\CCCCCCCC(=O)OC[C@@H](COP(O)(O)=S)OC` [OMPT], for which, at LPA3 receptor, the “reduction of severity of injury by blockade of the LPA3 receptor” value is listed as “reversed”.
Take `CC(OC(=O)Nc1ccncc1-c1ccc(-c2ccc(C3(C(=O)O)CC3)cc2)cc1)c1ccccc1Cl` (centres unmarked) [Compound 1-1, 1-(4′-{4-[1-(2-chloro-phenyl)-ethoxycarbonylamino]-pyridin-3-yl}-biphenyl-4-yl)-cyclopropanecarboxylic acid]: on Human LPA1, the IC50 is less than 300 nM. In assay [5] (acute setting (3 day)), the “BALF MMP-7” value is listed as “reduced”, the “BALF TGFβ1” value is “reduced”, the BALF collagen result is “reduced” and the BALF hyaluronan entry is “reduced”. Also, in assay [5] (acute setting (3 day)), the “BALF inflammatory cell influx” value was “reduced” and the BALF protein result is “reduced”. Besides, in [5] (setting [6]), the fibrosis result was “reduced”, the inflammation entry is listed as “reduced”, the lung injury result was “reduced” and the vascular leakage entry is on record as “reduced”.

These data come from patent US9272990B2, “Lysophosphatidic acid receptor antagonists and their use in the treatment fibrosis” (AMIRA PHARMACEUTICALS, INC., priority 2010, dated 2016).
